Tests used:
[1] = system: lasI/lasZ transcriptional fusion (lasR); conditions: λI14-MG4 (pPCS1), Seed et al., 1995, cited from earlier work
[2] = system: tumor necrosis factor and interleukin-12; conditions: Telford et al., 1998; cited from earlier work
[3] = system: lymphocytes; conditions: in vivo (so in the source); Telford et al., 1998; cited from earlier work
[4] = system: LasR; test: microbe, parasite or virus in culture; type: cell-based; conditions: Pseudomonas aeruginosa, read-out: concentration that stimulates half-maximal activity
Experimental: Positive clones were tested in a Pseudomonas aeruginosa bioassay. PAC-JP2 (bearing the lasI/rhII double deletion) produces no PAI-1 but retains the ability to produce LasR. When PAI-1 is added exogenously, it can bind to LasR and induce the transcription of lasI. Test samples containing 40 nM PAI-1 (the concentration that stimulates half-maximal activity in this assay) were preincubated at 37° C. with anti-PAI-1 monoclonal antibody (618.4). Control samples containing 40 nm PAI-1 were preincubated at 37° C. with an equal volume of PBS. Following preincubation, the samples were tested in a Pseudomonas aeruginosa bioassay using PAO-JP2 containing a plasmid with a lasI/LacZ fusion. When the bacteria reached on OD600 of 0.8-1.0, the samples were assayed for the production of β-galactosidase, which was expressed as Miller Units of activity.

CCCCCCCCCC(=O)CC(=O)NC1CCOC1=O [PAI-1, N-(3-oxo)-dodecanoyl-L-homoserine lactone]
lowest PAI-1 concentration that activates the construct [1]: 10 pM
EC50 ([1]; read-out: PAI-1 concentration for half-maximal expression): 0.1 nM
effect on expression of tumor necrosis factor and interleukin-12 [2]: downregulates expression
effect on proliferation of lymphocytes [3]: inhibit the proliferation of lymphocytes
EC50 [4]: 40 nM
